According to a melting point compilation (Tetko et al.; mined from patent text by program, amines drawn as free bases though some values may be those of a salt):

**Q.** For `COC(=O)c1ccc(N2CCSC2=N)c([N+](=O)[O-])c1`, which melting point is on record?
**A.** 156 °C

**Q.** With `CC1(C)Oc2ccc(-c3c(NCCO)c(=O)c3=O)cc2[C@@H](N2Cc3ccccc3C2=O)[C@@H]1O` (relative stereo) as the compound, how does the melting point read?
**A.** 205 to 215 °C

**Q.** Which melting point does the source give for `N#Cc1ccccc1Oc1ccc(Cl)cc1` here?
**A.** 84 to 86 °C

**Q.** With `COC(=O)c1ccc(OCCCO/N=C/c2cn(Cc3ccccc3)c3ccccc23)cc1O` as the compound, how does the melting point read?
**A.** 100 to 102 °C

**Q.** Which melting point does the source give for `Cc1ccc(-c2c(O)c(=O)c3ccccc3n2C)cc1` here?
**A.** 216 to 218 °C

**Q.** Which melting point does the source give for `Cc1cc(-n2ccnc2)c2cccc(OCc3c(Cl)ccc(N(C)C(=O)CN4C(=O)c5ccccc5C4=O)c3Cl)c2n1` here?
**A.** 200 to 203 °C

**Q.** For `COC(=O)c1cccc(NC(=O)NCC(=O)O)c1`, which melting point is on record?
**A.** 215 °C

**Q.** Which melting point does the source give for `COc1cc2c(cc1OC)N(C)C(=O)CN=C2c1cccc(C(C)=O)c1` here?
**A.** 148 to 150 °C

**Q.** For `CC1(C)CC(=O)Nc2cc(C(=O)Nc3ccccc3)ccc21`, which melting point is on record?
**A.** 249 to 251 °C

**Q.** Which melting point does the source give for `COc1cc(C=O)cc(I)c1OCc1ccccc1` here?
**A.** 53 to 54 °C

**Q.** For `CC(C)(C)OC(=O)N1C(=O)[C@H](O)[C@@H]1C=Cc1ccccc1`, which melting point is on record?
**A.** 132 to 133 °C

**Q.** With `O=C1Nc2ccccc2Cc2nccn21` as the compound, how does the melting point read?
**A.** 238 to 240 °C

**Q.** With `CNc1noc(C)c1Cl` as the compound, how does the melting point read?
**A.** 43 to 47 °C

**Q.** For `CCOC(=O)CN(c1ccc(N)cc1)S(=O)(=O)c1cccc2ccccc12`, which melting point is on record?
**A.** 98 to 103 °C

**Q.** Which melting point does the source give for `COc1ccc(NC(=O)c2ccc(F)c(F)c2)cc1NS(=O)(=O)c1cccc(C#N)c1` here?
**A.** 212 to 214 °C

**Q.** Which melting point does the source give for `Cc1nccn1CCCCc1ccc(OCc2coc(/C=C/c3ccccc3)n2)cc1` here?
**A.** 122 to 123 °C

**Q.** Which melting point does the source give for `O=C(c1ccccc1)c1ccc([N+](=O)[O-])c(F)c1` here?
**A.** 77 to 79 °C

**Q.** With `COCc1nc2cccnc2n1Cc1ccc(C(=O)N(C(C)C)C2CCCCC2)cc1OC` as the compound, how does the melting point read?
**A.** 126 °C

**Q.** For `CNC1CCN(c2c(F)cc3c(=O)c(C(=O)O)cn(C4CC4)c3c2C)CC1C` (stereo unspecified), which melting point is on record?
**A.** 233 to 235 °C

**Q.** Which melting point does the source give for `S=C1CSc2cccc(Cl)c2N1` here?
**A.** 138 to 140 °C

**Q.** Which melting point does the source give for `C=C1OC(c2ccc(Cl)cc2)=NC1(C)CC` (stereo unspecified) here?
**A.** 55 to 57 °C

**Q.** For `CC(C)(C)OC(=O)N1CC=C(c2ccc(Br)cc2)CC1`, which melting point is on record?
**A.** 68 to 70 °C

**Q.** Which melting point does the source give for `C=CCSc1cc(-c2ccc(C(F)(F)F)cc2)ccc1C#N` here?
**A.** 89 to 90 °C

**Q.** For `CCSc1cnc(Cl)cc1C#N`, which melting point is on record?
**A.** 112 to 114 °C

**Q.** Which melting point does the source give for `CS(=O)(=O)Nc1cc(N)ccc1OC1CCCCC1` here?
**A.** 152 to 154 °C

**Q.** For `Clc1ccccc1-c1nc(-c2ccccc2)c(-c2ccccc2)n1Br`, which melting point is on record?
**A.** 103 to 105 °C

**Q.** With `O=C1c2ccccc2N(c2ccc(F)cc2)C2=NCCN12` as the compound, how does the melting point read?
**A.** 278 to 280 °C

**Q.** Which melting point does the source give for `Cc1c2c(c(C(C)c3ccc(C(C)C)cc3)c(C)c1NC(=O)CC(C)(C)C)OCC2` (stereo unspecified) here?
**A.** 189 to 190 °C

**Q.** With `CCOC(=O)C1(Cc2ccccc2)CC(=O)N(c2ccnc(NC(=O)NCc3ccccn3)c2)C1` (stereo unspecified) as the compound, how does the melting point read?
**A.** 158 to 160 °C

**Q.** For `Sc1ncc(-c2ccccc2)s1`, which melting point is on record?
**A.** 207 to 209 °C

**Q.** Which melting point does the source give for `O=c1oc2ccccc2c(O)c1-c1ccc(Cl)c(Cl)c1` here?
**A.** 262 °C

**Q.** Which melting point does the source give for `COc1cc2c(cc1F)C(c1ccccc1Cl)=NC1=CNNC1=N2` here?
**A.** 242 to 243 °C

**Q.** Which melting point does the source give for `COC(=O)c1cccc(OC)c1S(=O)(=O)Cl` here?
**A.** 106 to 108 °C

**Q.** With `COc1cccc(CNC(=O)c2cc3c(=O)n(CCOc4ccc(Br)cc4)c(=O)n(C)c3s2)c1` as the compound, how does the melting point read?
**A.** 165 to 167 °C

**Q.** Which melting point does the source give for `CC(C)(C)OC(=O)COc1ccc(C=O)cc1` here?
**A.** 56 to 57 °C

**Q.** For `O=C1CCC(N2C(=O)c3cccc(OCc4ccc(CN5CCC(c6ccccc6)CC5)cc4)c3C2=O)C(=O)N1` (stereo unspecified), which melting point is on record?
**A.** 142 to 144 °C

**Q.** Which melting point does the source give for `Cc1nn(-c2ccc(C#N)c(Cl)c2)c(C)c1Oc1ccc(NC(=O)C(C)(C)C)cn1` here?
**A.** 191 to 192 °C

**Q.** Which melting point does the source give for `Nc1n[nH]c2c(F)c(F)ccc12` here?
**A.** 183 °C

**Q.** For `Cc1c(C)c2c(c(C)c1O)CCC(C)(CCc1ccccc1)O2` (stereo unspecified), which melting point is on record?
**A.** 96 to 98 °C

**Q.** Which melting point does the source give for `CC(O)=C(C#N)C(=O)Nc1ccc(S(C)(=O)=O)cc1` here?
**A.** 205 to 206 °C

**Q.** For `CC1c2cccc3c2N(CC3)c2ccccc2N1CC#N` (stereo unspecified), which melting point is on record?
**A.** 148 to 150 °C

**Q.** Which melting point does the source give for `Cc1cc(-c2cc(C(F)(F)F)n3ncc(C(=O)Nc4nc(C)c(S(N)(=O)=O)s4)c3n2)ccc1C(F)(F)F` here?
**A.** 309 °C

**Q.** With `O=C(O)COc1ccc2c(-c3ccccc3F)noc2c1Br` as the compound, how does the melting point read?
**A.** 180 to 182 °C

**Q.** Which melting point does the source give for `CCCCc1nc(Cl)c(CO)n1Cc1ccc(NC(=O)[C@H](CC#N)NC(=O)OCc2ccccc2)cc1` here?
**A.** 89 to 91 °C

**Q.** For `COc1ccc2c(c1)CN(C)C(=O)C2c1cc(Cl)cc(Cl)c1` (stereo unspecified), which melting point is on record?
**A.** 163 to 165 °C

**Q.** Which melting point does the source give for `CCOC(=O)c1ccc(F)cn1` here?
**A.** 61 to 63 °C

**Q.** For `Nc1ccccc1SSc1ccccc1N`, which melting point is on record?
**A.** 88 to 89 °C

**Q.** For `O=c1c2ncn(C3OC(COC(c4ccccc4)(c4ccccc4)c4ccccc4)C(O)C3O)c2ncn1Cc1ccccc1` (stereo unspecified), which melting point is on record?
**A.** 208 to 209 °C

**Q.** For `Fc1ccc(F)c(C(Sc2ccc(Cl)cc2)c2ccc(CSc3ccc(Cl)cc3)cn2)c1` (stereo unspecified), which melting point is on record?
**A.** 87 to 88 °C

**Q.** With `CCCC(CCC)C(=O)N[C@H](C(=O)N[C@H](CO)Cc1c[nH]c2ccccc12)[C@@H](C)CC` as the compound, how does the melting point read?
**A.** 190 to 191 °C

**Q.** Which melting point does the source give for `CN(Cc1ccc(S(C)(=O)=O)cc1)S(=O)(=O)c1cn(S(=O)(=O)N(C)C)c(C#N)n1` here?
**A.** 169 to 172 °C
